Experimental data reported in patent US20170189504A1, “NOVEL PEPTIDES AND COMBINATION OF PEPTIDES FOR USE IN IMMUNOTHERAPY AGAINST VARIOUS CANCERS” (immatics biotechnologies GmbH, priority 2015, published 2017).

tested on: HLA-A*02; assay: MHC binding assay, UV-ligand exchange with β2m ELISA, HLA-A*02 (Table 20); parameters: species or system human; settings: binding to HLA-A*02 ranged by peptide exchange yield (UV-ligand exchange, β2m ELISA)
From the text: (§1) Candidate peptides for T cell based therapies according to the present invention were further tested for their MHC binding capacity (affinity). The individual peptide-MHC complexes were produced by UV-ligand exchange, where a UV-sensitive peptide is cleaved upon UV-irradiation, and exchanged with the peptide of interest as analyzed. Only peptide candidates that can effectively bind and stabilize the peptide-receptive MHC molecules prevent dissociation of the MHC complexes. To determine the yield of the exchange reaction, an ELISA was performed based on the detection of the light chain ((β2m) of stabilized MHC complexes. The assay was performed as generally described in Rodenko et al. (Rodenko et al., 2006).
(§2) 96 well MAXISorp plates (NUNC) were coated over night with 2 ug/ml streptavidin in PBS at room temperature, washed 4× and blocked for 1 h at 37° C. in 2% BSA containing blocking buffer. Refolded HLA-A*02:01/MLA-001 monomers served as standards, covering the range of 15-500 ng/ml. Peptide-MHC monomers of the UV-exchange reaction were diluted 100 fold in blocking buffer. Samples were incubated for 1 h at 37° C., washed four times, incubated with 2 ug/ml HRP conjugated anti-β2m for 1 h at 37° C., washed again and detected with TMB solution that is stopped with […]. Absorption was measured at 450 nm. Candidate peptides that show a high exchange yield (preferably higher than 50%, most preferred higher than 75%) are generally preferred for a generation and production of antibodies or fragments thereof, and/or T cell receptors or fragments thereof, as they show sufficient avidity to the MHC molecules and prevent dissociation of the MHC complexes.

Substance	Peptide exchange
127 (KLDGNELDL; listed as Homo sapiens) [compound 127]	+++ (50%-75% = +++)
118 (QLWQFLVTL; listed as Homo sapiens) [compound 118]	+++ (50%-75% = +++)
40 (VLIDPQWVLTA; listed as Homo sapiens) [compound 40]	+++ (50%-75% = +++)
84 (ALCPRIHEV; listed as Homo sapiens) [compound 84]	++++ (≧75% = ++++)
41 (ALFENTPKA; listed as Homo sapiens) [compound 41]	++ (20%-49% = ++)
94 (LLLPAVPVGA; listed as Homo sapiens) [compound 94]	+++ (50%-75% = +++)
109 (SLDPSVTHL; listed as Homo sapiens) [compound 109]	++ (20%-49% = ++)
63 (SQIPAQPSV; listed as Homo sapiens) [compound 63]	++ (20%-49% = ++)
44 (SLFETAWEA; listed as Homo sapiens) [compound 44]	+++ (50%-75% = +++)
69 (FLAVGLVDV; listed as Homo sapiens) [compound 69]	+++ (50%-75% = +++)
58 (YLLPLLPAL; listed as Homo sapiens) [compound 58]	+++ (50%-75% = +++)
152 (MMVGDLLEV; listed as Homo sapiens) [compound 152]	+++ (50%-75% = +++)
57 (TVFTDHMLTV; listed as Homo sapiens) [compound 57]	++ (20%-49% = ++)
42 (LLDSVSRL; listed as Homo sapiens) [compound 42]	+ (<20% = +)
154 (RLLGTEFQV; listed as Homo sapiens) [compound 154]	+++ (50%-75% = +++)
61 (AIVKEIVNI; listed as Homo sapiens) [compound 61]	++ (20%-49% = ++)
71 (VLHSKFWVV; listed as Homo sapiens) [compound 71]	+++ (50%-75% = +++)

Substance	Peptide exchange
50 (ILFHGVFYA; listed as Homo sapiens) [compound 50]	+++ (50%-75% = +++)
98 (RLFPDFFTRVAL; listed as Homo sapiens) [compound 98]	++ (20%-49% = ++)
19 (SISDNVWEV; listed as Homo sapiens) [compound 19]	+++ (50%-75% = +++)
89 (QLAPVFQRV; listed as Homo sapiens) [compound 89]	++ (20%-49% = ++)
82 (FIFDEAEKL; listed as Homo sapiens) [compound 82]	+ (<20% = +)
147 (YLMDDTVEI; listed as Homo sapiens) [compound 147]	++++ (≧75% = ++++)
128 (TQSPATLSV; listed as Homo sapiens) [compound 128]	++ (20%-49% = ++)
28 (SLPNGKPVSV; listed as Homo sapiens) [compound 28]	+++ (50%-75% = +++)
78 (TVVTRLDEI; listed as Homo sapiens) [compound 78]	++ (20%-49% = ++)
25 (TMDSVLVTV; listed as Homo sapiens) [compound 25]	+++ (50%-75% = +++)
77 (TLIDEQDIPLV; listed as Homo sapiens) [compound 77]	+++ (50%-75% = +++)
32 (VQLDSIEDLEV; listed as Homo sapiens) [compound 32]	+++ (50%-75% = +++)
87 (TIYKDFVYI; listed as Homo sapiens) [compound 87]	++ (20%-49% = ++)
62 (ALNPELVQA; listed as Homo sapiens) [compound 62]	++ (20%-49% = ++)
37 (ILAPFSVDL; listed as Homo sapiens) [compound 37]	+++ (50%-75% = +++)
136 (FLFGGVLMTL; listed as Homo sapiens) [compound 136]	++ (20%-49% = ++)

Continued, values first:

Peptide exchange	Substance
+++ (50%-75% = +++)	250 (SLAPATPEV; listed as Homo sapiens) [compound 250]
+++ (50%-75% = +++)	259 (ILLPRIIEA; listed as Homo sapiens) [compound 259]
+++ (50%-75% = +++)	253 (ALAELIDNSL; listed as Homo sapiens) [compound 253]
+++ (50%-75% = +++)	237 (ALAPHLDDA; listed as Homo sapiens) [compound 237]
+++ (50%-75% = +++)	260 (ILLEKILSL; listed as Homo sapiens) [compound 260]
+++ (50%-75% = +++)	265 (NTCPYVHNI; listed as Homo sapiens) [compound 265]
++ (20%-49% = ++)	239 (KMNESTRSV; listed as Homo sapiens) [compound 239]
++ (20%-49% = ++)	263 (VLLSEQGDVKL; listed as Homo sapiens) [compound 263]
+++ (50%-75% = +++)	262 (FMVDKAIYL; listed as Homo sapiens) [compound 262]

tested on: HLA-A*24; assay: MHC binding assay, UV-ligand exchange with β2m ELISA, HLA-A*24 (Table 21); parameters: species or system human; settings: binding to HLA-A*24 ranged by peptide exchange yield (UV-ligand exchange, β2m ELISA)
From the text: as §1, §2

Substance	Peptide exchange
175 (YYEVHKELF; listed as Homo sapiens) [compound 175]	++++ (≧75% = ++++)
178 (IFIEVFSHF; listed as Homo sapiens) [compound 178]	+++ (50%-75% = +++)
177 (VYPWLGALL; listed as Homo sapiens) [compound 177]	++++ (≧75% = ++++)

Results, then the substance that gave them:

Peptide exchange	Substance
++++ (≧75% = ++++)	187 (TYLRDQHFL; listed as Homo sapiens) [compound 187]
+++ (50%-75% = +++)	275 (EYINQGDLHEF; listed as Homo sapiens) [compound 275]
+++ (50%-75% = +++)	288 (VYVSDIQEL; listed as Homo sapiens) [compound 288]
+++ (50%-75% = +++)	221 (RYSTGLAGNLL; listed as Homo sapiens) [compound 221]
+++ (50%-75% = +++)	283 (TYGDAGLTYTF; listed as Homo sapiens) [compound 283]
++++ (≧75% = ++++)	210 (IYTMIYRNL; listed as Homo sapiens) [compound 210]
++++ (≧75% = ++++)	276 (VYGFQWRHF; listed as Homo sapiens) [compound 276]
+++ (50%-75% = +++)	201 (IYATEAHVF; listed as Homo sapiens) [compound 201]
++++ (≧75% = ++++)	195 (TYSVSFPMF; listed as Homo sapiens) [compound 195]
++ (20%-49% = ++)	286 (RYPDNLKHL; listed as Homo sapiens) [compound 286]
++++ (≧75% = ++++)	217 (FFPPTRQMGLLF; listed as Homo sapiens) [compound 217]
++++ (≧75% = ++++)	216 (QYSSVFKSL; listed as Homo sapiens) [compound 216]
+++ (50%-75% = +++)	284 (RYLNKAFHI; listed as Homo sapiens) [compound 284]
++++ (≧75% = ++++)	181 (LYLDIINLF; listed as Homo sapiens) [compound 181]
